According to paper PMC4722887 (Oncology Reports, 2015):

System: CD8 T cells of HLA-A*0201-transgenic HHD mice
Assay type: in vivo, mouse

Substance	Immunogenicity when coupled to the surface of the liposomes (HHD mice)	CD8 T-cell immune responses against the native epitope, peptide emulsified in IFA (injected in HHD mice)
1: native hTERT peptide, start position 540 (540–548) (ILAKFLHWL) [Peptide 1]	no immunogenicity	–
14: heteroclitical peptide derived from #13 (p944) (LQAYRFHAV) [Peptide 14]	–	only weak
